These are literature values, as cited in US20040234544A1, “Formulation containing (lyso-)phosphatidylserine for the prevention and treatment of stress states in warm blooded animals” (priority 2001, published 2004).

Where two headings read alike, the source gives them in different places.

One data set has as its system trained runners. The conditions noted are these: 300 or 600 mg PS per day over 15 days.
Another data set relates to persons under 40 years. To be noted: persons under 40 years and persons whose brain function was average for their age.
The test system of a further data set is young adults. To be noted: 300 mg PS per day.

With phosphatidylserine, the “effect against muscle damage” value in the data set on trained runners was “protective effect against muscle damage”. Also, in the data set with persons under 40 years, the “improvements under PS supplementation” value was “no improvements were observed”. Further, the “effect in stress-induced behaviour (body temperature)” value in the data set on rats (old rats) is listed as “normalization of body temperature”. Further, the “effect in lesions of the stomach wall” value with rats (older rats) is “positive effect”. Also, in the data set with rats (young rats), the “effect in lesions of the stomach wall” value was “this effect was not observed”. Also, in the data set with young adults, the mood result is listed as “positive effect”, the pulse rate result is “positive effect” and the subjective stress sensitivity result is listed as “positive effect”.
